Earlier results on one compound are cited in patent publication US10662178B2, “Crystalline form of Olaparib” (Apotex Inc., priority 2018, dated 2020).

The conditions of the data set: CHMP Assessment Report EMEA/H/C/003726/0000.

As for `O=C(c1cc(Cc2n[nH]c(=O)c3ccccc23)ccc1F)N1CCN(C(=O)C2CC2)CC1` [Olaparib, 4-[(3-{[4-(cyclopropylcarbonyl)-piperazin-1-yl]carbonyl}-4-fluorophenyl)methyl]phthalazin-1(2H)-one], the “Biopharmaceutics Classification System (BCS) class” value is on record as “Class IV”. Besides, the solubility entry (drug substance in the approved drug product LYNPARZA) was “low solubility”.
